Data from patent publication US11274136B2, “Acylated glucagon analogue” (Zealand Pharma A/S, priority 2015, dated 2022).

How the values were obtained:
[1] = target: T1, human glucagon-like peptide 1 receptor (GLP-1R) (Homo sapiens, UniProt P43220); assay: GLP-1 receptor efficacy assay (cAMP AlphaScreen, CHO cells); type: cell-based; conditions: EC50[GLP-1R]/EC50[Glucagon-R], human receptors in CHO-K1
T1 construct: expressed in transfected cells
Source text: The cDNA encoding either the human glucagon receptor (Glucagon-R) (primary accession number P47871) or the human glucagon-like peptide 1 receptor (GLP-1R) (primary accession number P43220) were synthesized and cloned into a mammalian expression vector containing a Zeocin resistance marker.
The mammalian expression vectors encoding the Glucagon-R or the GLP-1-R were transfected into Chinese hamster ovary (CHO) cells by the Attractene method. Stably expressing clones were obtained by Zeocin selection (250 μg/mL) upon limited dilution of cells resistant to the selection pressure. Glucagon-R and GLP-1-R cell clones expressing were picked, propagated and tested in the Glucagon-R and GLP-1-R efficacy assays as described below. […]
CHO cells expressing the human Glucagon-R, or human GLP-1-R were seeded 24 hours prior to the assay at 5000 cells per well in 384-well microtiter plates in culture in 50 μl growth medium. […] After two hours of incubation at room temperature in the dark, the cAMP content was determined applying the AlphaScreen™ cAMP Functional Assay Kit from Perkin-Elmer according to manufacturer instructions. EC50 and relative efficacies compared to reference compounds (glucagon and GLP-1) were calculated applying computer aided curve fitting. The GLP-1/glucagon ratio is calculated as defined earlier.

[2] = Pharmacokinetic parameters after intravenous administration to rats; type: in vivo; conditions: Han/Wistar, rat, plasma, male Wistar rats, 20 nmol/kg
Experimental: Pharmacokinetic parameters of the test compounds were determined after intravenous administration to Han/Wistar rats. The acylated GLP-1 analogue semaglutide was also tested for comparison purposes.
Male Wistar rats were obtained from Charles River (Germany) weighing approximately 180 to 210 g at time of arrival at the test facility. Rats were caged in European standard rat cages type IV with light cycle of 12-hour dark and 12-hour light. During the study rats were housed in standard rat cages type III. Both diet Altromin 1324 (Altromin, Germany) and water was administered ad libitum during the whole experimental period. The animals were housed in the test facility for at least 4 days in order to assure proper acclimatization.
The compounds were first dissolved in 0.1% aqueous ammonia to a nominal concentration of 2 mg/ml, and then diluted to the desired dosing strength (10 μM) in sterile PBS containing 25 mM phosphate buffer, pH 7.4. Intravenous injections corresponding to 20 nmol/kg were given via a lateral tail vein.
Blood samples (200 μl) were collected from the periorbital plexus at time points 0.08, 0.25, 0.5, 1, 2, 4, 8, 24, 32 and 48 h post dosing into K3EDTA tubes and centrifuged for 5 minutes at 4° C. within 20 minutes of sampling. Plasma samples (>100 μl) were transferred to 96-well PCR plates, immediately frozen and kept at −20′C until analysed for plasma concentration for the respective GLP-1-glucagon compound using LC-MS/MS. Individual plasma concentration-time profiles were analysed by a non-compartmental approach using ToxKin™ version 3.2 (Unilog IT Services), and the resulting pharmacokinetic parameters were determined.

[3] = Oral glucose tolerance test (OGTT) in mice; type: in vivo; conditions: male C57BL6/J mice, 30 nmol/kg subcutaneous, blood glucose AUC 0-120 min
Experimental: Effects of the test compounds on glycemic control were determined by an oral glucose tolerance test (OGTT) in 7-8 weeks old male C57BL6/J mice (obtained from Charles River Laboratories, Germany). Animals were housed in groups in individually ventilated cages (Tecniplast green line) with a 12-hour light cycle. They had ad libitum excess to a standard rodent diet (Provimi Kliba 3438) and water. The animals were housed in the test facility for at least one week prior to the OGTT. All experimental protocols concerning the use of laboratory animals were reviewed by a federal Ethics Committee and approved by governmental authorities.
The compounds were first dissolved in 0.1% aqueous ammonia to a nominal concentration of 2 mg/ml, and then diluted to the desired dosing strength in sterile PBS containing 25 mM phosphate buffer, pH 7.4. Compounds were administered in the morning by subcutaneous injection at a dose of 30 nmol/kg and a volume of 5 ml/kg. Control animals received a vehicle injection only. The GLP-1 analogue liraglutide was tested for comparison purposes. Group size was 5 animals per group.
The OGTT was performed 24 h or 48 h after compound administration. Animals were fasted for 10 h before the OGTT but still had ad libitum excess to water. After overnight fasting, a baseline blood sample (0 min) was obtained by tail bleed and blood glucose was measured with a glucometer. […]

T1 sequence (P43220 24-463): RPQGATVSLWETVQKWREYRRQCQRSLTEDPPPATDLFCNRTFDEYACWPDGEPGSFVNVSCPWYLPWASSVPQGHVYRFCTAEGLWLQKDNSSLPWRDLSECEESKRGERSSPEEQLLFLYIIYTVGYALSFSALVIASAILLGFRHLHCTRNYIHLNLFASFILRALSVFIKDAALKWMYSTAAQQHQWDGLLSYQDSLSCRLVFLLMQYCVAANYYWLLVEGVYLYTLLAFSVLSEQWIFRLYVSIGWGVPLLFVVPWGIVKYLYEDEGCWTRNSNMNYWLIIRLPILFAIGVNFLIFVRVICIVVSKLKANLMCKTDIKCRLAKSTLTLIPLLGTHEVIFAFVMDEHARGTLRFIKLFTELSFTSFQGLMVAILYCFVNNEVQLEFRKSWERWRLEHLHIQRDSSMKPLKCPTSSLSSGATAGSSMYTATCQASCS

Ratio GLP-1/Glucagon [1]: 0.13
clearance [2]: 5.4 mL/h/kg
MRT ([2]; read-out: Mean Residence Time): 19.2 h
half-life ([2]; read-out: Terminal half life (converted)): 15.2 h
SMILES: CC[C@H](C)[C@H](NC(=O)[C@H](Cc1ccccc1)NC(=O)[C@H](CC(=O)O)NC(=O)[C@H](CCCCN)NC(=O)[C@H](C)NC(=O)[C@H](C)NC(=O)[C@H](CCCNC(=N)N)NC(=O)[C@H](CCC(=O)O)NC(=O)[C@H](CC(=O)O)NC(=O)[C@H](CC(C)C)NC(=O)[C@H](Cc1ccc(O)cc1)NC(=O)[C@H](CCCCN)NC(=O)[C@H](CO)NC(=O)[C@H](Cc1ccc(O)cc1)NC(=O)[C@H](CC(=O)O)NC(=O)[C@H](CO)NC(=O)[C@@H](NC(=O)[C@H](Cc1ccccc1)NC(=O)[C@@H](NC(=O)CNC(=O)[C@H](CCC(N)=O)NC(=O)C(C)(C)NC(=O)[C@@H](N)Cc1c[nH]cn1)[C@@H](C)O)[C@@H](C)O)C(=O)N[C@@H](CCC(=O)O)C(=O)N[C@@H](Cc1c[nH]c2ccccc12)C(=O)N[C@@H](CC(C)C)C(=O)N[C@@H](CCC(=O)O)C(=O)N[C@@H](CCCCNC(=O)CNC(=O)CNC(=O)[C@H](CO)NC(=O)CNC(=O)[C@H](CO)NC(=O)CNC(=O)CC[C@H](NC(=O)CCCCCCCCCCCCCCCCC(=O)O)C(=O)O)C(=O)N[C@@H](C)C(N)=O [Compound 1]
OGTT AUC 30 nmol/kg 24 h ([3]; OGTT 24 h after administration): 56 % CTL
OGTT AUC 30 nmol/kg 48 h ([3]; OGTT 48 h after administration): 74 % CTL
